Among the test systems are K-562 leukemia; HT29 colon; HCT-15 colon; NCI-H226 lung; LOX IMVI melanoma; UO-31 renal; KM12 colon; CAKI-1 renal; BT-549 breast; ACHN renal; EKVX NSCLC; NCI-H23 lung; OVCAR-5 ovarian; A498 renal; 786-0 renal; UACC-257 melanoma; SW-620 colon.
Holding throughout (assay): inhibition of tumour cell growth, NCI panel, 48 h

For 13 molecules, TGI results are on record in PubChem BioAssay (NCI).

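In this assay, cells in 96-well plates receive the compound at five concentrations for 48 hours. Endpoints are linearly interpolated between the surrounding concentrations. TGI: total growth inhibition.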

For the molecule `COc1ccc(N2C(=O)C3ON(C(C(N)=O)c4ccccc4)C(c4ccc(-c5ccccc5)cc4)C3C2=O)cc1` (configuration not stated), the TGI in the assay with K-562 leukemia, with HT29 colon, in the assay with HCT-15 colon, in the assay with NCI-H226 lung, in the assay with LOX IMVI melanoma and in the assay with UO-31 renal was more than 50 µM each time. In addition, the TGI with KM12 colon, with CAKI-1 renal, with BT-549 breast, in the assay on ACHN renal, with EKVX NSCLC and with NCI-H23 lung was more than 50 µM each time. Moreover, the TGI in the assay on OVCAR-5 ovarian, with A498 renal, with 786-0 renal, in the assay with UACC-257 melanoma and in the assay on SW-620 colon was more than 50 µM throughout.
Consider `O=C1C(/C=C/c2ccc(Cl)cc2)=NNC2N1N=C1NC(=O)C3(NN12)c1ccccc1-c1ccccc13` (configuration not stated), for which the TGI in the assay on K-562 leukemia, in the assay on HT29 colon, in the assay with HCT-15 colon, with NCI-H226 lung, in the assay with LOX IMVI melanoma and in the assay on UO-31 renal was more than 100 µM in each case. The TGI in the assay on CAKI-1 renal, in the assay on BT-549 breast, in the assay with ACHN renal, in the assay on EKVX NSCLC, in the assay on NCI-H23 lung and with OVCAR-5 ovarian was more than 100 µM in each case. The TGI with A498 renal, in the assay with 786-0 renal, in the assay on UACC-257 melanoma and in the assay on SW-620 colon was more than 100 µM throughout.
For the molecule `O=[N+]([O-])c1cccc2nc3ccccc3c(NCCc3cccc[n+]3[O-])c12`, the TGI is more than 100 µM with K-562 leukemia; 0.0628 µM in the assay with HT29 colon; 0.0639 µM with HCT-15 colon; 0.562 µM in the assay with NCI-H226 lung; 0.121 µM in the assay with LOX IMVI melanoma; 0.552 µM with KM12 colon. Also, the TGI in the assay with CAKI-1 renal is 0.901 µM; in the assay on BT-549 breast, 0.0917 µM; in the assay with ACHN renal, 0.039 µM; with EKVX NSCLC, 0.121 µM; with NCI-H23 lung, 0.0661 µM; in the assay on OVCAR-5 ovarian, 0.145 µM. In addition, the TGI with A498 renal amounted to 0.225 µM; in the assay on 786-0 renal it was 0.249 µM; with UACC-257 melanoma, 0.0647 µM; with SW-620 colon, 0.197 µM.
`CCCCC(=O)Nc1ccc2cc(C(=O)OC)c(ON3C(=O)c4ccccc4C3=O)nc2n1`: the TGI in the assay with K-562 leukemia is more than 100 µM; with HCT-15 colon, more than 100 µM; in the assay on NCI-H226 lung, 60.2 µM; in the assay on LOX IMVI melanoma, more than 100 µM; in the assay on UO-31 renal, 44.4 µM; in the assay with KM12 colon it was more than 100 µM. Moreover, the TGI in the assay with CAKI-1 renal is 52.4 µM; in the assay on BT-549 breast it was more than 100 µM; in the assay with ACHN renal, more than 100 µM; in the assay on EKVX NSCLC, more than 100 µM; in the assay with NCI-H23 lung, more than 100 µM; in the assay with OVCAR-5 ovarian, 98.3 µM. For the same molecule, the TGI in the assay with A498 renal is more than 100 µM; with 786-0 renal it was 36.1 µM; with UACC-257 melanoma it was more than 100 µM; with SW-620 colon it was more than 100 µM.
Regarding `Cc1c(CCOC=O)c(=O)[nH]c2nncn12`, the TGI in the assay on K-562 leukemia, with HT29 colon, in the assay with HCT-15 colon, in the assay with NCI-H226 lung, with LOX IMVI melanoma and in the assay on UO-31 renal was more than 100 µM throughout. Further, the TGI in the assay on KM12 colon, with BT-549 breast, in the assay with ACHN renal, with EKVX NSCLC, in the assay on NCI-H23 lung and with OVCAR-5 ovarian was more than 100 µM throughout. Further, the TGI in the assay with A498 renal, in the assay with 786-0 renal, with UACC-257 melanoma and in the assay on SW-620 colon was more than 100 µM each time.
With `COc1ccc(/C=C2\C[C@H]3[C@@H]4CCC5=C[C@@H](N6CCCC6)CC[C@]5(C)[C@H]4CC[C@]3(C)[C@H]2O)cc1`, the TGI stood at 11.8 µM in the assay on K-562 leukemia; 3.15 µM with HT29 colon; 5.77 µM in the assay on HCT-15 colon; 10.9 µM in the assay on NCI-H226 lung; 3.61 µM with LOX IMVI melanoma; 3.26 µM in the assay on UO-31 renal. Besides, the TGI with KM12 colon came to 8.02 µM; in the assay with CAKI-1 renal it was 14.6 µM; in the assay on BT-549 breast it was 14.1 µM; with ACHN renal it was 11.7 µM; in the assay on EKVX NSCLC, 17 µM; in the assay on NCI-H23 lung, 16.3 µM. Moreover, the TGI with OVCAR-5 ovarian is 20.9 µM; in the assay on A498 renal it was 3.2 µM; with 786-0 renal it was 2.94 µM; with UACC-257 melanoma, 2.98 µM.
Take `CCOc1ccc(/C(O)=C/c2nc3ccccc3nc2/C=C(\O)c2ccc(OCC)cc2)cc1`: the TGI with K-562 leukemia, in the assay with HT29 colon, with HCT-15 colon, with NCI-H226 lung, in the assay with LOX IMVI melanoma and with UO-31 renal was more than 100 µM each time. The TGI in the assay on CAKI-1 renal, in the assay on BT-549 breast, in the assay on ACHN renal, in the assay on EKVX NSCLC, in the assay with NCI-H23 lung and in the assay with OVCAR-5 ovarian was more than 100 µM throughout. In addition, the TGI with A498 renal, in the assay on 786-0 renal, in the assay on UACC-257 melanoma and in the assay on SW-620 colon was more than 100 µM in each case.
For the molecule `CN(NC(=O)CCCl)C1=NCCN1`, the TGI with K-562 leukemia, with HT29 colon, in the assay with HCT-15 colon, with NCI-H226 lung, in the assay on LOX IMVI melanoma and with UO-31 renal was more than 100 µM throughout. Also, the TGI in the assay on KM12 colon, in the assay with BT-549 breast, with ACHN renal, in the assay with EKVX NSCLC, in the assay on NCI-H23 lung and in the assay with OVCAR-5 ovarian was more than 100 µM each time. The TGI in the assay on A498 renal, with 786-0 renal, in the assay on UACC-257 melanoma and in the assay on SW-620 colon was more than 100 µM in each case.
Turning to `O=P(Oc1ccccc1)(Oc1ccccc1)Oc1c[nH]c2ccccc12`, the TGI with K-562 leukemia came out at 36.5 µM; in the assay on HT29 colon, 22 µM; in the assay with HCT-15 colon it was 28.8 µM; in the assay on NCI-H226 lung it was 31.3 µM; in the assay with LOX IMVI melanoma it was 49.9 µM; with UO-31 renal, 19.7 µM. Moreover, the TGI in the assay on KM12 colon was more than 100 µM; in the assay on CAKI-1 renal, 23.4 µM; in the assay with BT-549 breast, 34.4 µM; in the assay on EKVX NSCLC, 0.907 µM; in the assay with NCI-H23 lung, 25.8 µM; with OVCAR-5 ovarian, 4.56 µM. Further, the TGI stood at 29.1 µM with A498 renal, 33.1 µM in the assay with 786-0 renal, 21.8 µM in the assay on UACC-257 melanoma and 36 µM in the assay with SW-620 colon.
Consider `CC1=C2c3c(C)ccc4ccc(C)c(c34)C2(O)C(C)C1=O` (configuration not stated), for which the TGI in the assay on K-562 leukemia, with HT29 colon, with HCT-15 colon, in the assay with NCI-H226 lung, in the assay on LOX IMVI melanoma and with UO-31 renal was more than 100 µM in each case. The TGI is more than 100 µM with KM12 colon; more than 100 µM with CAKI-1 renal; 57.4 µM with BT-549 breast; more than 100 µM with ACHN renal; more than 100 µM in the assay with EKVX NSCLC; more than 100 µM in the assay with OVCAR-5 ovarian. The TGI in the assay with A498 renal, with 786-0 renal, with UACC-257 melanoma and in the assay on SW-620 colon was more than 100 µM throughout.
For the molecule `Cc1ccc(-c2c(C#N)c(S)n(NS(=O)(=O)c3ccc(C)cc3)c(=O)c2C#N)cc1`, the TGI in the assay with K-562 leukemia is more than 100 µM; in the assay on HCT-15 colon it was 40.4 µM; in the assay on NCI-H226 lung it was 39.6 µM; in the assay on LOX IMVI melanoma it was more than 100 µM; in the assay on UO-31 renal, 38.5 µM; with KM12 colon it was 35.2 µM. For the same molecule, the TGI in the assay with CAKI-1 renal is 74.3 µM; with BT-549 breast it was 47.8 µM; with ACHN renal, 49.8 µM; in the assay on EKVX NSCLC, more than 100 µM; with NCI-H23 lung, 52.3 µM; with OVCAR-5 ovarian it was 67 µM. The TGI was more than 100 µM with A498 renal, more than 100 µM with 786-0 renal, more than 100 µM in the assay with UACC-257 melanoma and 39.3 µM in the assay on SW-620 colon.
On to `COC(=O)C1(Cc2ccc3c(c2)CCC3)Cc2ccc3c(c2C1O)CCC3` (configuration not stated), for which the TGI with K-562 leukemia was more than 100 µM; in the assay with HT29 colon, 31.6 µM; in the assay with NCI-H226 lung it was 45 µM; in the assay on LOX IMVI melanoma, 26.2 µM; with UO-31 renal, 22.5 µM; in the assay with KM12 colon, 38.9 µM. Further, the TGI with CAKI-1 renal stood at 29.4 µM; with BT-549 breast, 29.5 µM; in the assay on ACHN renal, 26.7 µM; with EKVX NSCLC, 32 µM; with A498 renal, 25.1 µM; with 786-0 renal it was 28.6 µM. Besides, the TGI came to 26.1 µM in the assay with UACC-257 melanoma and 30.2 µM in the assay on SW-620 colon.
For `CC(C)(C)c1ccc(-c2nc3ccc([N+](=O)[O-])cc3c(=O)o2)cc1`, the TGI is 71.3 µM with K-562 leukemia; 69.4 µM in the assay with HT29 colon; 73.4 µM in the assay with HCT-15 colon; 29.9 µM in the assay with LOX IMVI melanoma; 93.8 µM in the assay on UO-31 renal; 69.9 µM in the assay with KM12 colon. The TGI is more than 100 µM in the assay with CAKI-1 renal; 76.9 µM with BT-549 breast; 90.5 µM with ACHN renal; more than 100 µM in the assay with EKVX NSCLC; 78.7 µM in the assay on NCI-H23 lung; more than 100 µM in the assay on OVCAR-5 ovarian. Also, the TGI in the assay on A498 renal was 73.9 µM; in the assay on 786-0 renal, more than 100 µM; in the assay with UACC-257 melanoma, 81.2 µM; in the assay with SW-620 colon it was more than 100 µM.
